Measurements reported in US11390922B2, “C-CBL mutations and uses thereof” (University of Chicago, priority 2010, dated 2022).
Entries after “also recorded” stand apart in the source; their conditions may differ.

What was measured:
H358 NSCLC cells = test: MTT assay of live cells after drug treatment of H358 cells with c-CBL knockdown; assay type: cell-based; settings: H358 clone 27 cells, 72 h after drug treatment
Description: H358 clone 27 cells expressing high levels of c-CBL were knocked down using a lentiviral construct (sh 27). Cells were treated with the indicated RTK inhibitors, PI-3K inhibitors or cisplatin (CDDP). Live cells were assessed 72 h after drug treatment using a MTT assay.
The effects of silencing wt c-CBL in combination with a variety of drugs that inhibit EGFR (erlotinib [Tarceva]), PI-3K (NVP, Wortmanin), MET (SU11274) on the growth of H358 NSCLC cells that endogenously express c-CBL-Wt were investigated. The H358 cells, which expressed high levels of c-CBL, were knocked down using a lentiviral construct (sh 27, directed against c-CBL-Wt in H358 clone 27 cells (black), or the sh SCR scrambled RNA control (white)). Cells were treated with RTK and P1-3K inhibitors, cisplatin (CDDP). Live cells were assessed 72 hours after drug treatment using an MTT assay.

A549 cells = test: Cell survival of c-CBL wild type and mutant transfectants after treatment with c-Met and EGFR inhibitors (cell counting); assay type: cell-based, Human; settings: for sensitivity (cell survival) of c-CBL mutant versus wild type c-CBL transfected cells: A549 cells transiently transfected with c-CBL WT or mutants SH, Q, V, W*, different concentrations, 48 h treatment
Description: A549 and H226 cells were transiently transfected with empty vector (EV) or c-CBL wild type (WT) and mutants' constructs (SH: S80N/H94Y, Q: Q249E, V: V391I, W*: W802*). At 24 h, cells were recollected and seeded 5×10^4 cells/well in 24 well culture plate. Another 24 h, cells were treated with c-Met inhibitor SU11274 and EGFR inhibitor Tarceva in different concentrations. Cell survival was detected by cell counting after 48 h treatment.

Met kinase = settings: cited from earlier work
EGFR = settings: refractory advanced NSCLC; cited from earlier work

SMILES | live cells: c-CBL-Wt knockdown (sh 27) versus scrambled shRNA control (H358 NSCLC cells) | sensitivity of A549 cells containing c-CBL mutants versus wild type c-CBL (A549 cells; 1 μM SU11274, mutants S80N/H94Y, Q249E, V391I, W802* (FIG. 23)) | sensitivity (cell survival) of c-CBL mutant versus wild type c-CBL transfected cells (A549 cells) | cell growth, cell cycle and apoptosis (Met kinase) | Met kinase autophosphorylation (Met kinase; sites important for PI3K and Ras pathway activation) | response to EGFR blockade (EGFR)
Cc1[nH]c(/C=C2\C(=O)Nc3ccc(S(=O)(=O)N(C)c4cccc(Cl)c4)cc32)c(C)c1C(=O)N1CCN(C)CC1 [SU11274] | silencing c-CBL-Wt significantly reduced the ability of SU11274 (also referred to as SU) to kill NSCLC cells | c-CBL mutants are more sensitive than wild type c-CBL | had more sensitivity to the c-Met inhibitor SU11274; also recorded: c-CBL mutants had more sensitivity to c-Met inhibitor SU11274 than wild type c-CBL | time- and dose-dependent reduced cell growth and induced G1 cell cycle arrest and apoptosis | reduced | –
C#Cc1cccc(Nc2ncnc3cc(OCCOC)c(OCCOC)cc23)c1 [Tarceva, erlotinib] | – | – | no difference; also recorded: no differential effects | – | – | 5-15%
